Holding throughout (type): cell-based
Holding throughout (conditions): 24 hours after administration

Experiment [1] has as its system androgen receptor (AR). The experiment in a line: AR degradation in 22Rv1 cells (Western blot). Here is the method:
(§1) LNCAP, VCAP and 22Rv1 cells were plated in 24-well plates at 1.5×10E5 cells/well in the RPMI growth medium containing 10% FBS and 1% Penicillin Streptomycin, and then incubated at 37° C. overnight. The following day, the test compound was administered to the cells by using 1000× compound stock solution prepared in DMSO at various concentrations. After administration of the compound, the cells were then incubated at 37° C. for 24 hours. Upon completion, the cells were washed with PBS and protein was collected in Laemmli sample buffer (1×; VWR International). Proteins in cell lysate were separated by SDS-PAGE and transferred to Odyssey nitrocellulose membranes (Licor) with iblot® dry blotting transfer system (ThermoFisher). Nonspecific binding was blocked by incubating membranes with Intercept Blocking Buffer (Licor) for 1 hour at room temperature with gentle shaking. The membranes were then incubated overnight at 4° C. with Primary antibodies rabbit anti-AR (1:1,000, Cell Signaling, 5153) and mouse anti-GAPDH (1:5,000, Santa Cruz Biotechnology, sc-47724) diluted in Intercept Blocking Buffer containing 0.1% Tween 20. After washing 3 times with TBS-T, the membranes were incubated with IRDye® […] goat anti-mouse IgG (1:20,000, Licor) or IRDye® […] goat anti-rabbit IgG (1:20,000, Licor) for 1 hour. After TBS-T washes, membranes were rinsed in TBS and scanned on Odyssey® CLx Imaging System (Licor). The bands were quantified using Image Studio™ Software (Licor).
(§2) Tables 5 and 6 summarize the androgen receptor (AR) degradative activity of exemplary compounds in LNCAP, VCAP and 22Rv1 cell lines 24 hours after administration. DC50: compound concentration needed for 50% target protein degradation.
A general note: In western blotting, separated proteins are transferred to a membrane and probed.

The target of experiment [2] is T1, androgen receptor (AR) (Homo sapiens, UniProt P10275, T878A).
T1 construct: endogenous in cells; host or cells: LNCAP
T1 sequence (P10275 1-920 T878A): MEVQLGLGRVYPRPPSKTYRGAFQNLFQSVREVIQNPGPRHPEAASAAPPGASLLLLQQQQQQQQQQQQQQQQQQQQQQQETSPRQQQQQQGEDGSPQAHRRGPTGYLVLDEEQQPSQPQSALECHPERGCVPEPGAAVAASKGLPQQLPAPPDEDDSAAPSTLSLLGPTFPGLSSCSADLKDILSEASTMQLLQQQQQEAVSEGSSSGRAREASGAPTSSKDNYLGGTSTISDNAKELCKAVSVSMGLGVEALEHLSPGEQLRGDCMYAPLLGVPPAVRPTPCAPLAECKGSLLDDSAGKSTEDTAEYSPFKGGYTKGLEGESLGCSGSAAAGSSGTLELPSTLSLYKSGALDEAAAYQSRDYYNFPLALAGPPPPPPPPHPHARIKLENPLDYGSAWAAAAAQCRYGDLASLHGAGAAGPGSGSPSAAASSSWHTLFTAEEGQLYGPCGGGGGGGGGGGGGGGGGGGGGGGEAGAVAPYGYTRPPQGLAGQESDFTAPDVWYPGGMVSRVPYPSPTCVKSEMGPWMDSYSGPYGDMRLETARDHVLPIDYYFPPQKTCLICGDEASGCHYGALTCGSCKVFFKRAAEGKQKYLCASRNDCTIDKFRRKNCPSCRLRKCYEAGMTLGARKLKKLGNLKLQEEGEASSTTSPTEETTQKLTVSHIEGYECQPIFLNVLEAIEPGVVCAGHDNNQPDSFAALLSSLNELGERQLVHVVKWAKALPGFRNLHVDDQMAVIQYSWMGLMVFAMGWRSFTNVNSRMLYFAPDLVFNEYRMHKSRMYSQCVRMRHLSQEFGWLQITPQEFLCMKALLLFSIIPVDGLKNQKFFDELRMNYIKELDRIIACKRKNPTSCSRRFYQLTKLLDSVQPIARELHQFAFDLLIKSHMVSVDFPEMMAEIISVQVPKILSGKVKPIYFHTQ
The experiment in a line: AR degradation in LNCAP cells (Western blot). In a few lines:
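Cells plated in RPMI with 10% FBS overnight, then treated with compound at various concentrations (from 1000× DMSO stocks) for 24 h at 37 °C. AR level measured by Western blot with GAPDH as loading control, infrared-fluorescent detection and band quantification; DC50 is concentration giving 50% AR degradation.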

The target in experiment [3] is T2, androgen receptor (AR) (Homo sapiens, UniProt P10275).
T2 construct: endogenous in cells; host or cells: VCAP
T2 sequence (P10275 1-920): T1 sequence (P10275 1-920 T878A) with A878T
Briefly: AR degradation in VCAP cells (Western blot). Here is the method: as §1, §2

Positions count from the first letter of the chain named. Where only a bound is given, the exact number is not on record here.

Regarding `C[C@@H]1CN(c2ccc(C#N)c(Cl)c2)[C@@H](C)CN1C(=O)Nc1cnc(N2CCC(CN3CCN(c4ccc5c(c4)C(=O)N(C4CCC(=O)NC4=O)C5=O)CC3)CC2)nc1` (stereo partly drawn) [Compound 1-20, (2R,5S)-4-(3-chloro-4-cyanophenyl)-N-(2-(4-((4-(2-(2,6-dioxopiperidin-3-yl)-1,3-dioxoisoindolin-5-yl)piperazin-1-yl)methyl)piperidin-1-yl)pyrimidin-5-yl)-2,5-dimethylpiperazine-1-carboxamide], the DC50 in the experiment with androgen receptor (AR) [1] and on androgen receptor (AR) [2] was at most 10 nM each time.
Consider `C[C@@H]1CN(c2ccc(C#N)c(Cl)c2)[C@@H](C)CN1C(=O)Nc1cnc(N2CCC(CN3CCN(c4ccc5c(c4)C(=O)N(C4CCC(=O)NC4=O)C5=O)CC3)CC2)nc1` (stereo partly drawn) [Compound 1-21, (2R,5S)-4-(3-chloro-4-cyanophenyl)-N-(2-(4-((4-(2-(2,6-dioxopiperidin-3-yl)-1,3-dioxoisoindolin-5-yl)piperazin-1-yl)methyl)piperidin-1-yl)pyrimidin-5-yl)-2,5-dimethylpiperazine-1-carboxamide], for which the DC50 at androgen receptor (AR) [2] and at androgen receptor (AR) [3] was at most 10 nM each time.
Consider `C[C@@H]1CN(C(=O)Nc2cnc(N3CCC(CN4CCN(c5ccc6c(c5)C(=O)N(C5CCC(=O)NC5=O)C6=O)CC4)CC3)nc2)[C@@H](C)CN1c1ccc(C#N)c(Cl)c1` (stereo partly drawn) [Compound 1-22, (2S,5R)-4-(3-chloro-4-cyanophenyl)-N-(2-(4-((4-(2-(2,6-dioxopiperidin-3-yl)-1,3-dioxoisoindolin-5-yl)piperazin-1-yl)methyl)piperidin-1-yl)pyrimidin-5-yl)-2,5-dimethylpiperazine-1-carboxamide], for which the DC50 on androgen receptor (AR) [2] and on androgen receptor (AR) [3] was over 100 nM each time.
Take `COc1cc(N2C[C@@H](C)N(C(=O)Nc3ccc(N4CCC(CN5CCN(c6ccc7c(c6)C(=O)N(C6CCC(=O)NC6=O)C7=O)CC5)CC4)nc3)C[C@@H]2C)ccc1C#N` (stereo partly drawn) [Compound 1-26, (2R,5S)-4-(4-cyano-3-methoxyphenyl)-N-(6-(4-((4-(2-(2,6-dioxopiperidin-3-yl)-1,3-dioxoisoindolin-5-yl)piperazin-1-yl)methyl)piperidin-1-yl)pyridin-3-yl)-2,5-dimethylpiperazine-1-carboxamide]: the DC50 at androgen receptor (AR) [2] and on androgen receptor (AR) [3] was at most 10 nM in each case.
On to `COc1cc(N2C[C@@H](C)N(C(=O)Nc3cnc(N4CCC(CN5CCN(c6ccc7c(c6)C(=O)N(C6CCC(=O)NC6=O)C7=O)CC5)CC4)nc3)C[C@@H]2C)ccc1C#N` (stereo partly drawn) [Compound 1-27, (2R,5S)-4-(4-cyano-3-methoxyphenyl)-N-(2-(4-((4-(2-(2,6-dioxopiperidin-3-yl)-1,3-dioxoisoindolin-5-yl)piperazin-1-yl)methyl)piperidin-1-yl)pyrimidin-5-yl)-2,5-dimethylpiperazine-1-carboxamide], for which the DC50 at androgen receptor (AR) [2] and on androgen receptor (AR) [3] was at most 10 nM throughout.
Take `COc1cc(N2C[C@@H](C)N(C(=O)Nc3cc(F)c(N4CCC(CN5CCN(c6ccc7c(c6)C(=O)N(C6CCC(=O)NC6=O)C7=O)CC5)CC4)cc3F)C[C@@H]2C)ccc1C#N` (stereo partly drawn) [Compound 1-29, (2R,5S)-4-(4-cyano-3-methoxyphenyl)-N-(4-(4-((4-(2-(2,6-dioxopiperidin-3-yl)-1,3-dioxoisoindolin-5-yl)piperazin-1-yl)methyl)piperidin-1-yl)-2,5-difluorophenyl)-2,5-dimethylpiperazine-1-carboxamide]: the half-maximal degradation concentration (DC50) at androgen receptor (AR) [2] and on androgen receptor (AR) [3] was at most 10 nM in each case.
Turning to `C[C@@H]1CN(c2ccc(C#N)c(C(F)(F)F)c2)[C@@H](C)CN1C(=O)Nc1ccc(N2CCC(CN3CCN(c4ccc5c(c4)C(=O)N(C4CCC(=O)NC4=O)C5=O)CC3)CC2)nc1` (stereo partly drawn) [Compound 1-30, (2R,5S)-4-(4-cyano-3-(trifluoromethyl)phenyl)-N-(6-(4-((4-(2-(2,6-dioxopiperidin-3-yl)-1,3-dioxoisoindolin-5-yl)piperazin-1-yl)methyl)piperidin-1-yl)pyridin-3-yl)-2,5-dimethylpiperazine-1-carboxamide], the DC50 at androgen receptor (AR) [2] and at androgen receptor (AR) [3] was at most 10 nM in each case.
In the case of `C[C@@H]1CN(c2ccc(C#N)c(C(F)(F)F)c2)[C@@H](C)CN1C(=O)Nc1cnc(N2CCC(CN3CCN(c4ccc5c(c4)C(=O)N(C4CCC(=O)NC4=O)C5=O)CC3)CC2)nc1` (stereo partly drawn) [Compound 1-31, (2R,5S)-4-(4-cyano-3-(trifluoromethyl)phenyl)-N-(2-(4-((4-(2-(2,6-dioxopiperidin-3-yl)-1,3-dioxoisoindolin-5-yl)piperazin-1-yl)methyl)piperidin-1-yl)pyrimidin-5-yl)-2,5-dimethylpiperazine-1-carboxamide], the DC50 on androgen receptor (AR) [2] and on androgen receptor (AR) [3] was at most 10 nM in each case.
Consider `C[C@@H]1CN(c2ccc(C#N)c(C(F)(F)F)c2)[C@@H](C)CN1C(=O)Nc1ccc(N2CCC(CN3CCN(c4ccc5c(c4)CN([C@H]4CCC(=O)NC4=O)C5=O)CC3)CC2)nc1` [Compound 1-43, (2R,5S)-4-(4-cyano-3-(trifluoromethyl)phenyl)-N-(6-(4-((4-(2-((S)-2,6-dioxopiperidin-3-yl)-1-oxoisoindolin-5-yl)piperazin-1-yl)methyl)piperidin-1-yl)pyridin-3-yl)-2,5-dimethylpiperazine-1-carboxamide], for which the DC50 in the experiment with androgen receptor (AR) [1], at androgen receptor (AR) [2] and at androgen receptor (AR) [3] was at most 10 nM throughout.
In the case of “(2R,5S)-4-(4-cyano-3-methoxyphenyl)-N-(4-(4-((4-(2-((S)-2,6-dioxopiperidin-3-yl)-1-oxoisoindolin-5-yl)piperazin-1-yl)methyl)piperidin-1-yl)-3-fluorophenyl)-2,5-dimethylpiperazine-1-carboxamide [Compound 1-53]”, the DC50 in the experiment with androgen receptor (AR) [1], on androgen receptor (AR) [2] and at androgen receptor (AR) [3] was at most 10 nM in each case.

(Values after US11420956B2, “Ureas having Androgen Receptor degradation activity and uses thereof” (ACCUTAR BIOTECHNOLOGY INC., priority 2019, dated 2022).)
